From patent US20020032173A1, “Blood flow improvers and thrombosis preventives or remedies” (Koyo Chemical Co., Ltd., priority 2000, published 2002)
Values joined by “and” are separate entries in the source; they are usually repeats but may differ in a detail not shown here. Equal entries are not always repeated.

Legend:
adult volunteers [1] = test: Test 1: blood flow improving effects, whole blood transit time by microchannel array flow analyzer (MC-FAN) after oral glucosamine hydrochloride; type: in vivo, human; conditions: for Transit time: 100 μL heparinated whole blood; for Transit time, Mean: mean of 5 volunteers, mean before administration 50.3 sec
Method: From each of adult volunteers (A: male, B: female, C: female, D: female, E: male) who had taken usual breakfast, a first blood sample (10 mL) was collected at 1:00 p.m. Immediately after the collection of the blood sample, 1.5 g of glucosamine hydrochloride with 50 mL of water was administered to the volunteer. Blood samples (10 mL, each; 5% heparinated) were collected upon elapsed time of 30 min, 60 min and 90 min after the administration. The fluidity of each blood sample was determined by a microchannel array flow analyzer (MC-FAN) which is a capillary model fabricated by VLSI technology. The determination was carried out as will be described below. A fresh 5%-heparinated whole blood sample, which had been obtained by adding 0.5 part by weight of a 1,000 IU/mL heparin sodium solution to 9.5 parts by weight of the corresponding blood sample, was caused to flow through an array of 8,736 parallel microchannels of 7 μm in width, 30 μm in length and 4.5 μm in depth (Bloody 6-7) under 20 cmH2O suction by using the microchannel array flow analyzer (MC-FAN). A transit time necessary for 100 μL of the whole blood sample to pass through the microchannels was measured. Using a transit time necessary for 100 μL of physiological saline to pass through the microchannels as measured just before the blood measurement, the transit time of the whole blood sample was converted in accordance with the following equation: Transit time of the whole blood x 12 sec/transit time of the physiological saline to obtain a value which would have been available if the transmit time of physiological saline had been 12 sec. The value was recorded as a blood transit time. The results are shown in Table 1, including indices of whole blood transit times of the blood samples collected after the administration of the glucosamine hydrochloride based on those of the corresponding blood samples collected before the administration of glucosamine hydrochloride (% relative to an initial value of 100%).

adult volunteers [2] = test: Test 3: whole blood transit time by MC-FAN after oral N-acetylglucosamine; type: in vivo, human; conditions: mean before administration 60.9 sec
Method: From each of adult volunteers (A: male, B: female, C: female, D: female, E: male) who had taken usual breakfast, a first blood sample (10 mL) was collected at 1:00 p.m. Immediately after the collection of the blood sample, 1.5 g of glucosamine hydrochloride with 50 mL of water was administered to the volunteer. Blood samples (10 mL, each; 5% heparinated) were collected upon elapsed time of 30 min, 60 min and 90 min after the administration. The fluidity of each blood sample was determined by a microchannel array flow analyzer (MC-FAN) which is a capillary model fabricated by VLSI technology. The determination was carried out as will be described below. […] A transit time necessary for 100 μL of the whole blood sample to pass through the microchannels was measured. Using a transit time necessary for 100 μL of physiological saline to pass through the microchannels as measured just before the blood measurement, the transit time of the whole blood sample was converted in accordance with the following equation: Transit time of the whole blood x 12 sec/transit time of the physiological saline to obtain a value which would have been available if the transmit time of physiological saline had been 12 sec. The value was recorded as a blood transit time. […]

## Cl.N[C@H]1C(O)O[C@H](CO)[C@@H](O)[C@@H]1O (stereo partly drawn) [glucosamine hydrochloride]
Adult volunteers [1]; 30 min after oral 1.5 g
  Index (%) of whole blood transit time relative to initial value of 100%: 70.0%
  Transit time, Mean: 35.1 s
Adult volunteers [1]; 60 min after oral 1.5 g
  Index (%) of whole blood transit time relative to initial value of 100%: 67.1%
  Transit time, Mean: 33.7 s
Adult volunteers [1]; individual volunteer E, 90 min after oral 1.5 g with 50 mL water
  Transit time: 31.6 s
Adult volunteers [1]; individual volunteers A-E, 30 min after oral 1.5 g with 50 mL water, normalised to saline 12 sec, hydrochloride
  Transit time: 35.3 s and 36.1 s and 28.6 s and 38.6 s and 37.1 s
Adult volunteers [1]; individual volunteers A-E, 60 min after oral 1.5 g with 50 mL water, hydrochloride
  Transit time: 28.7 s and 37.1 s and 27.4 s and 42.3 s and 33.2 s

## CC(=O)N[C@H]1C(O)O[C@H](CO)[C@@H](O)[C@@H]1O (stereo partly drawn) [N-acetylglucosamine]
Adult volunteers [2]; 30 min after administration as in Test 1
  mean blood transit time: 36.5 s
Adult volunteers [2]; 1 hr after administration as in Test 1
  mean blood transit time: increased back to the value before the administration
